Format in all cases: cell-based
The subject of assay [1] is Gram-positive bacteria. Briefly: MIC across the tested strains. The settings on record: for MIC: across the tested strains. On the procedure:
(§1) Compounds were dissolved in dimethyl sulfoxide (DMSO) to achieve a starting concentration of 32 µg/mL as described by us previously. Compounds were further diluted two-fold across the 96-well honeycomb plate columns in cation adjusted Mueller Hinton broth (CAMHB), and bacterial culture was added. Plates were incubated for 18–20 h at 35 ℃ before determining the minimum concentrations at which wells had no visible turbidity to the naked eye. The MIC values were determined from at least a duplicate result obtained from three independent experiments using fresh bacterial cultures on different days.

The test system of assay [2] is E. faecalis ATCC 51299 (Ef99). The assay can be described thus: MIC, microdilution (CLSI). The conditions noted are these: Enterococcus faecalis, ATCC 51299 / VRE; Ef99, vancomycin-resistant (VRE) E. faecalis ATCC 51299; n = 3; read-out: MIC. On the procedure: as §1
(In general: In broth dilution the organism is exposed to a series of concentrations in liquid medium.)

The test system of assay [3] is Bacillus subtilis ATCC 6623 (Bs). Briefly: MIC, microdilution (CLSI). The conditions noted are these: ATCC6623; Bs, Bacillus subtilis ATCC 6623; n = 3; read-out: MIC. On the procedure:
as §1

The subject of assay [4] is S. epidermidis ATCC 700296 (Se). The assay can be described thus: MIC, microdilution (CLSI). The settings on record: Staphylococcus epidermidis, ATCC700296; Se, S. epidermidis ATCC 700296; n = 3; read-out: MIC. On the procedure: as §1
Assay [5] has as its system S. aureus ATCC 33591 (Sa91). The assay can be described thus: MIC, microdilution (CLSI). The conditions noted are these: Staphylococcus aureus, ATCC33591; Sa91, methicillin-resistant S. aureus ATCC 33591; n = 3; read-out: MIC. How it is done: as §1
Assay [6] relates to E. faecium ATCC 700221 (Ef21). The assay can be described thus: MIC, microdilution (CLSI). The conditions noted are these: Enterococcus faecium, ATCC 700221 / VRE; Ef21, vancomycin-resistant (VRE) E. faecium ATCC 700221; n = 3; read-out: MIC. On the procedure: as §1
The subject of assay [7] is S. aureus BAA-2312 (Sa12). The assay can be described thus: MIC, microdilution (CLSI). The conditions noted are these: Staphylococcus aureus, BAA2312; Sa12, methicillin-resistant S. aureus BAA-2312; n = 3; read-out: MIC. On the procedure: as §1
In assay [8] the test system is S. aureus ATCC 700699 (Sa99). The assay can be described thus: MIC, microdilution (CLSI). The settings on record: Staphylococcus aureus, ATCC700699; Sa99, methicillin-resistant S. aureus ATCC 700699; n = 3; read-out: MIC. On the procedure:
as §1

The subject of assay [9] is S. aureus ATCC 25923 (Sa23). Briefly: MIC, microdilution (CLSI). The conditions noted are these: Staphylococcus aureus, ATCC25923; Sa23, antibiotic susceptible S. aureus ATCC 25923; n = 3; read-out: MIC. On the procedure:
as §1

Assay [10] deals with E. faecalis ATCC 29212 (Ef12). The assay can be described thus: MIC, microdilution (CLSI). The settings on record: Enterococcus faecalis, ATCC29212; Ef12, antibiotic susceptible E. faecalis ATCC 29212; n = 3; read-out: MIC. On the procedure:
as §1

Assay [11] relates to S. aureus ATCC 33592 (Sa92). The assay can be described thus: MIC, microdilution (CLSI). The settings on record: Staphylococcus aureus, ATCC33592; Sa92, methicillin-resistant S. aureus ATCC 33592; n = 3; read-out: MIC. How it is done: as §1

Converted amounts (≈) assume the structure as drawn.

Turning to `Cc1cc(NCc2cn(-c3ccc(C(=O)O)cc3)nc2-c2cc(C(F)(F)F)cc(C(F)(F)F)c2)ccc1Br` [Compound 16, 4-[3-[3,5-Bis(trifluoromethyl)phenyl]-4-[(4-bromo-3-methyl-anilino)methyl]pyrazol-1-yl] benzoic acid], the MIC in assay [1] is at least 1 µg/mL; in assay [2], 2 µg/mL (≈ 3.34 µM); in assay [3], 1 µg/mL (≈ 1.67 µM); in assay [4], 2 µg/mL (≈ 3.34 µM); in assay [5], 1 µg/mL (≈ 1.67 µM); in assay [6], 1 µg/mL (≈ 1.67 µM). Moreover, the MIC in assay [7] worked out at 1 µg/mL (≈ 1.67 µM); in assay [8], 2 µg/mL (≈ 3.34 µM); in [9], 1 µg/mL (≈ 1.67 µM); in assay [10], 1 µg/mL (≈ 1.67 µM); in assay [11], 1 µg/mL (≈ 1.67 µM).

With `O=C(O)c1ccc(-n2cc(CNc3ccc(F)c(F)c3)c(-c3cc(C(F)(F)F)cc(C(F)(F)F)c3)n2)cc1` [Compound 17, 4-[3-[3,5-Bis(trifluoromethyl)phenyl]-4-[(3,4-difluoroanilino)methyl]pyrazol-1-yl] benzoic acid], the MIC in [1] is 1 to 4 µg/mL (≈ 1.85 to 7.39 µM); in assay [2], 4 µg/mL (≈ 7.39 µM); in [3] it was 1 µg/mL (≈ 1.85 µM); in assay [4] it was 4 µg/mL (≈ 7.39 µM); in [5], 2 µg/mL (≈ 3.69 µM); in assay [6], 2 µg/mL (≈ 3.69 µM). Moreover, the minimum inhibitory concentration (MIC) in assay [7] is 2 µg/mL (≈ 3.69 µM); in [8], 2 µg/mL (≈ 3.69 µM); in assay [9], 2 µg/mL (≈ 3.69 µM); in assay [10], 4 µg/mL (≈ 7.39 µM); in assay [11] it was 2 µg/mL (≈ 3.69 µM).

Consider `CSc1ccc(NCc2cn(-c3ccc(C(=O)O)cc3)nc2-c2cc(C(F)(F)F)cc(C(F)(F)F)c2)cc1` [Compound 6, 4-[3-[3,5-Bis(trifluoromethyl)phenyl]-4-[(4-methylsulfanylanilino)methyl]pyrazol-1-yl] benzoic acid], for which the MIC is 1 to 4 µg/mL (≈ 1.81 to 7.25 µM) in assay [1]; 2 µg/mL (≈ 3.63 µM) in assay [2]; 1 µg/mL (≈ 1.81 µM) in assay [3]; 4 µg/mL (≈ 7.25 µM) in assay [4]; 2 µg/mL (≈ 3.63 µM) in assay [5]; 2 µg/mL (≈ 3.63 µM) in [6]. Moreover, the minimal inhibitory concentration (MIC) in assay [7] came out at 2 µg/mL (≈ 3.63 µM); in [8], 4 µg/mL (≈ 7.25 µM); in assay [9] it was 2 µg/mL (≈ 3.63 µM); in assay [10] it was 4 µg/mL (≈ 7.25 µM); in [11] it was 2 µg/mL (≈ 3.63 µM).

With `O=C(O)c1ccc(-n2cc(CNc3cccc(C(=O)O)c3)c(-c3cc(C(F)(F)F)cc(C(F)(F)F)c3)n2)cc1` [Compound 12, 3-[[3-[3,5-Bis(trifluoromethyl)phenyl]-1-(4-carboxyphenyl)pyrazol-4-yl]methylamino] benzoic acid], the “antibacterial activity” value in assay [1] (tested bacteria) is “eliminated the activity”. The MIC in assay [2], in assay [3], in assay [4], in assay [5], in [6] and in assay [7] was above 32 µg/mL each time. The MIC in [8], in assay [9], in [10] and in [11] was above 32 µg/mL in each case.

As for `O=C(O)c1ccc(-n2cc(CNc3ccc(F)c(Cl)c3)c(-c3cc(C(F)(F)F)cc(C(F)(F)F)c3)n2)cc1` [Compound 18, 4-[3-[3,5-Bis(trifluoromethyl)phenyl]-4-[(3-chloro-4-fluoro-anilino)methyl]pyrazol-1-yl] benzoic acid], the MIC in [2] came out at 2 µg/mL (≈ 3.59 µM); in assay [3] it was 1 µg/mL (≈ 1.79 µM); in [4], 2 µg/mL (≈ 3.59 µM); in [5], 1 µg/mL (≈ 1.79 µM); in assay [6], 1 µg/mL (≈ 1.79 µM); in [7] it was 1 µg/mL (≈ 1.79 µM). The MIC in assay [8] was 2 µg/mL (≈ 3.59 µM); in assay [9], 2 µg/mL (≈ 3.59 µM); in assay [10], 2 µg/mL (≈ 3.59 µM); in assay [11], 1 µg/mL (≈ 1.79 µM).

By MIC is commonly meant the lowest concentration that inhibits growth of the organism.

These data come from article PMC8398255, “Synthesis of 3,5-Bis(trifluoromethyl)phenyl-Substituted Pyrazole Derivatives as Potent Growth Inhibitors of Drug-Resistant Bacteria” (Molecules, 2021).
